In one data set the target is T1, BCR-ABL1 T315I (Homo sapiens, UniProt P00519, T315I).
T1 construct: BCR (fusion partner, as the printed name BCR-ABL1 says)
The data set is described as follows: KinaseProfiler radiometric kinase assay, BCR-ABL1 T315I. To be noted: [ATP] = 10 μM; mean of n = 2. In kind it is biochemical.

The nature of data set [1]: Metabolic stability in human liver microsomes. To be noted: human liver microsomes. It is filed as in vitro ADME. As for the experimental part:
(§1) Metabolic Stability in Liver Microsomes (Independently Performed by Pharmaron Inc., Ninqbo, CN)
(§2) This experiment was carried out under two separate set of conditions: i) with Cofactors (NADPH), which consisted of adding 25 μL of 10 mM NADPH to the incubations, giving a final NADPH concentration of 1 mM, and ii) without Cofactors (NADPH), which consisted of adding 25 μL of 100 mM phosphate buffer to the incubations. Under both sets of conditions, the final concentration of microsomes were 0.5 mg/mL. […] Samples were then centrifuged at 3,220 g for 40 min and aliquots of 100 μL of the supernatant were mixed with 100 μL of ultra-pure H2O and analyzed by LC-MS/MS.
(§3) Peak areas were determined from extracted ion chromatograms. The slope value, k, was determined by linear regression of the natural logarithm of the remaining percentage of the parent drug vs incubation time curve.

Data set [2] in a line: Metabolic stability in rat liver microsomes. It is filed as in vitro ADME. The note with it: rat liver microsomes. The protocol:
as §1, §2, §3

The next data set in a line: Caco-2 permeability. To be noted: human. The protocol:
Caco-2 Permeability (Independently Performed by Pharmaron Inc., Ningbo, CN)
To each well of the Transwell insert and reservoir were added 50 μL and 25 mL of cell culture medium, respectively. […] Following this, the Caco-2 plate was removed from the incubator and the monolayer washed twice with pre-warmed HBSS (10 mM HEPES, pH 7.4).
To determine the rate of drug transport in the apical to basolateral direction, 125 μL of the working solution of either test compounds or control compounds was added to the Transwell insert (apical compartment) and a 50 μL sample was immediately transported from the apical compartment to 200 μL of acetonitrile containing internal standard (100 nM alprazolam, 200 nM Caffeine and 100 nM tolbutamide) in a new 96-well plate as the initial donor sample (A-B). The sample was then vortexed at 1,000 rpm for 10 min. The receiver plate (basolateral compartment) wells were then filled with 235 μL of transport buffer. To determine the rate of drug transport in the basolateral to apical direction, 285 μL of the working solution of either test compounds or control compounds was added to the receiver plate wells (basolateral compartment) and a 50 μL sample was immediately transferred from the basolateral compartment to 200 μL of acetonitrile containing internal standard in a new 96-well plate as the initial donor sample (B-A). The sample was vortexed at 1,000 rpm for 10 min. The Transwell insert (apical compartment) was then filled with 75 μL of transport buffer and the apical to basolateral direction and the basolateral to apical direction were done at the same time. […] After incubation, 50 μL samples from donor sides (apical compartment for Ap→BI flux, and basolateral compartment for BI→Ap) and receiver sides (basolateral compartment for Ap→BI flux, and apical compartment for BI→Ap) were transferred to wells of a new 96-well plate, followed by the addition of 200 μL acetonitrile containing internal standard. All samples were vortexed for 10 min and then centrifuged at 3,220 g for 40 min. A 150 μL aliquot of the supernatant was then mixed with an appropriate volume of ultra-pure water prior to LC-MS/MS analysis.
To monitor for monolayer integrity, Lucifer yellow leakage was determined after the 2 h transport period. This began by preparing a stock solution of Lucifer yellow in DMSO which was diluted with HBSS (10 mM HEPES, pH 7.4.) to reach a final concentration of 100 μM. To each Transwell insert (apical compartment) was then added 100 μL of the Lucifer yellow solution, followed by filling the wells in the receiver plate (basolateral compartment) with 300 μL of HBSS (10 mM HEPES, pH 7.4).
The efflux ratio was determined using the following equation: […]
(In general: Caco-2 monolayers are a common model of the intestinal barrier.)

Data set [3] in a line: Metabolic stability in mouse hepatocytes. It is filed as in vitro ADME. The note with it: read-out: Remaining Percentages. The protocol:
All calculations were carried out using Microsoft Excel. Peak areas were determined from extracted ion chromatograms.

Where [4] appears, read: read-out: LMCIint (rate of metabolism).

Where two headings read alike, the source gives them in different places.

In the case of `COc1cc(Nc2c(C#N)cnc3cc(OCCON4CCN(C)CC4)c(OC)cc23)c(F)cc1Cl` [Compound 15, 4-((4-chloro-2-fluoro-5-methoxyphenyl)amino)-6-methoxy-7-(2-((4-methylpiperazin-1-yl)oxy)ethoxy)quinoline-3-carbonitrile], the IC50 (commonly the concentration that gives 50% inhibition) against BCR-ABL1 T315I is 0.166 µM. Besides, the figures for the half-life at 1 µM in data set [1] and in data set [2] were 4.3 min and 4.9 min, respectively. Also, the microsomal CLint at 1 µM in data set [1] (setting [4]) was found to be 321 µL/min/mg; in data set [2] (setting [4]), 286 µL/min/mg. The Papp A→B (commonly the apparent permeability from the apical to the basolateral side of a cell layer) at 2 h, 5 µM in the data set “Caco-2 permeability” is 19 nm/s.

For `COc1cc(Cl)ccc1Nc1c(C#N)cnc2cc(OCCON3CCN(C)CC3)c(OC)cc12` [Compound 20, 4-((4-Chloro-2-methoxyphenyl)amino)-6-methoxy-7-(2-((4-methylpiperazin-1-yl)oxy)ethoxy)quinoline-3-carbonitrile], the fraction remaining (commonly the share of the starting amount still present when the sample was taken) at 0.5 min in data set [3] (0.5 min) came out at 100%. For the same compound, the fraction remaining at […] turned out to be 55.5% in data set [3] (15 min) and 6.75% in data set [3] (90 min, BLOD = below level of detection). Further, in data set [3] (30 min), the amount remaining at 0.5 h was 28.6%. Moreover, in data set [3] (60 min), the amount remaining at 1 h worked out at 13.3%. The fraction remaining at 2 h in data set [3] (120 min, BLOD = below level of detection) worked out at 2.89%.

The values are drawn from patent US20260297031A1, “HYDROXYLAMINE-BASED BCR-ABL1 INHIBITORS FOR TREATMENT OF CANCER” (University of Georgia Research Foundation, Inc., priority 2023, published 2026).
